Results from patent US4556565A, “Sweetener composition, process for making the same, and comestibles comprising said sweetener composition” (priority 1983, dated 1985).
Where a SMILES comes first, the peptide text is derived from it.

Columns and labels:
[1] = Cold water solubility test (time to dissolve); assay type: physicochemical; conditions: 15 g/100 ml of water, 10° C., magnetic stirrer (3 turns/sec)
Description: A magnetic stirrer (3 turns/sec) was used to agitate each sample.

bacteria in the mouth = conditions: cited from earlier work
[2] = Residual APM in chewing gum on standing at 32° C.; assay type: physicochemical; conditions: calcium carbonate in the chewing gum base
[3] = cited from earlier work

| Cold water solubility of sweetener compositions [1] | Stability of APM in chewing gum containing calcium carbonate [2] | Compound | Dental caries causing effect / bacterial action in the mouth (bacteria in the mouth) | Dispersibility or solubility in water [3] |
| --- | --- | --- | --- | --- |
| 900 s | rapidly decomposed by calcium carbonate | COC(=O)[C@H](Cc1ccccc1)NC(=O)[C@@H](N)CC(=O)O [APM, L-aspartyl-L-phenylalanine methyl ester] (H-Asp-Phe-OMe) | low dental caries causing effect | low dispersibility or solubility in water |
|  |  | OC[C@@H](O)[C@@H](O[C@H]1O[C@H](CO)[C@@H](O)[C@H](O)[C@H]1O)[C@H](O)[C@@H](O)CO [hydrogenated maltose] | not subjected to the bacterial action in the mouth |  |
